The test system of assay [1] is Pseudomonas aeruginosa ΔnarGHJI. The experiment in a line: Chlorate sensitivity assay and chlorate quantification, ΔnarGHJI versus wild type. Format: cell-based. The settings on record: 1 mM chlorate, 72 hours. The method, then: (§1) Chlorate sensitivity assay was then performed. In particular, to test mutants for chlorate sensitivity, overnight cultures of each strain were grown aerobically in LB with 40 mM KNO3. Cultures were pelleted, washed twice with LB to remove residual KNO3, and resuspended in LB without (control) or with 1 mM NaClO3 to final OD500=1. Cultures were moved to the anaerobic glove box to adapt to anoxia.
Cultures were incubated at 37° C. for 72 hours, after which they were removed from the anaerobic glove box to determine viable cell counts for calculating percent survival as described previously) (Spero and Newman 2018).). At 72 hours, part of the culture was also pelleted, and supernatant collected for quantifying chlorate concentrations via ion chromatography.
(§2) Chlorate quantification was then performed via ion chromatography. In particular, culture samples were pelleted, and the supernatant was diluted 1:10 in dH2O in a 0.5 mL vial (Thermo Fisher Scientific catalog numbers 038010 and 038011). Chlorate concentrations were determined using a Dionex ICS 2000 ion chromatography as described previously (Spero and Newman 2018).) at the Environmental Analysis Center at Caltech.

Assay [2] has as its system Pseudomonas aeruginosa ΔhflC. The experiment in a line: Chlorate sensitivity assay and chlorate quantification, ΔhflC versus wild type. The settings on record: 1 mM chlorate. Format: cell-based. The method, then: as §1
[…] At 72 hours, part of the culture was also pelleted, and supernatant collected for quantifying chlorate concentrations via ion chromatography.
as §2

`[O-][Cl+2]([O-])O` [chlorate, NaClO3]: the “chlorate resistance (% survival) relative to WT” value in assay [1] (anaerobic, 37° C. (FIG. 2A)) is “more resistant to chlorate than WT”; in assay [2] (over the course of 48 hours (FIG. 3A)) it was “more resistant to chlorate than WT”. Besides, the “Nar activity, chlorate reduction (% chlorate remaining) relative to WT” value in assay [1] (ion chromatography (FIG. 2B)) and in assay [2] (over the course of 48 hours (FIG. 3B)) was “lower rates of chlorate reduction” each time.

The record behind these values is patent publication US20210322462A1, “WOUND PREVENTION AND/OR TREATMENT AND RELATED COMPOUNDS, MATRICES, COMPOSITIONS, METHODS AND SYSTEMS” (CALIFORNIA INSTITUTE OF TECHNOLOGY, priority 2020, published 2021).
